Data published in ChEMBL document CHEMBL4800727 (2021).
Calls of active or inactive are those of the source. The rule behind the calls is not given here.

Assays:
[1] = biological target: High affinity cAMP-specific and IBMX-insensitive 3',5'-cyclic phosphodiesterase 8A (Homo sapiens, UniProt O60658); test: hPDE8A1 PDE scan
[2] = biological target: Tyrosine-protein kinase Fyn (Homo sapiens) (UniProt P06241); test: FYN oncogene related to SRC, FGR, YES Millipore kinase panel; details: Compound concentration 10.0 uM
Rattus norvegicus = species: Rattus norvegicus; test: rK_ATP potassium channel Cerep panel; details: Compound concentration 10.0 uM
[3] = biological target: Phosphatidylinositol 4,5-bisphosphate 3-kinase catalytic subunit gamma isoform (Homo sapiens) (UniProt P48736); test: phosphoinositide-3-kinase, catalytic, gamma polypeptide Millipore kinase panel; details: Compound concentration 10.0 uM
[4] = biological target: Tyrosine-protein kinase Fes/Fps (Homo sapiens) (UniProt P07332); test: feline sarcoma oncogene Millipore kinase panel; details: Compound concentration 10.0 uM
Tyrosine-protein kinase Fes/Fps (Homo sapiens), sequence (P07332 whole entry): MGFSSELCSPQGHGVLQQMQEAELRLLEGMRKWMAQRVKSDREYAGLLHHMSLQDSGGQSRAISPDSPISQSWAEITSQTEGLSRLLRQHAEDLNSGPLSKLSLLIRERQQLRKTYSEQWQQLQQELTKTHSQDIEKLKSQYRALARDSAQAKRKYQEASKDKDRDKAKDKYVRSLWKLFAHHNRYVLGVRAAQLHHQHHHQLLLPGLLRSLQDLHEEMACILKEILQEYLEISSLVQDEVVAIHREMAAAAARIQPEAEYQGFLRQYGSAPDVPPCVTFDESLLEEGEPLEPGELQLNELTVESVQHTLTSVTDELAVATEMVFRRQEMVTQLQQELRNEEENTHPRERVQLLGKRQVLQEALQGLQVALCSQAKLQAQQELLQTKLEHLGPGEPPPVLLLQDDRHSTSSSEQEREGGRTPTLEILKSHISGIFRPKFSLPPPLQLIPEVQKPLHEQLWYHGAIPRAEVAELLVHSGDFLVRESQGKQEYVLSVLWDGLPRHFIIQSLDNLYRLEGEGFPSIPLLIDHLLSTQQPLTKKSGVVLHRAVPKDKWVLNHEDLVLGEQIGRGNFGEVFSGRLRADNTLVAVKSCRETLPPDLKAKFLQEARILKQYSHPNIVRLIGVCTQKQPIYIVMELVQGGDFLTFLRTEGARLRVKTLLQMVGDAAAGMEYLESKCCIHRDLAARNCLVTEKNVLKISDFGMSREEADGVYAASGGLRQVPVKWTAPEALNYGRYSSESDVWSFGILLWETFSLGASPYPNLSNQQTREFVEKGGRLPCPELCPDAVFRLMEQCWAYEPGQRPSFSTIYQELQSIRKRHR

[5] = biological target: Serine/threonine-protein kinase WNK2 (Homo sapiens) (UniProt Q9Y3S1); test: WNK lysine deficient protein kinase 2 Millipore kinase panel; details: Compound concentration 10.0 uM
[6] = biological target: Tyrosine-protein kinase HCK (Homo sapiens) (UniProt P08631); test: hemopoietic cell kinase (activated) Millipore kinase panel; details: Compound concentration 10.0 uM
[7] = biological target: Ephrin type-A receptor 2 (Homo sapiens) (UniProt P29317); test: EPH receptor A2 Millipore kinase panel; details: Compound concentration 10.0 uM
[8] = biological target: Serine/threonine-protein kinase Nek2 (Homo sapiens) (UniProt P51955); test: NIMA -related kinase 2 Millipore kinase panel; details: Compound concentration 10.0 uM
Serine/threonine-protein kinase Nek2 (Homo sapiens), sequence (P51955 whole entry): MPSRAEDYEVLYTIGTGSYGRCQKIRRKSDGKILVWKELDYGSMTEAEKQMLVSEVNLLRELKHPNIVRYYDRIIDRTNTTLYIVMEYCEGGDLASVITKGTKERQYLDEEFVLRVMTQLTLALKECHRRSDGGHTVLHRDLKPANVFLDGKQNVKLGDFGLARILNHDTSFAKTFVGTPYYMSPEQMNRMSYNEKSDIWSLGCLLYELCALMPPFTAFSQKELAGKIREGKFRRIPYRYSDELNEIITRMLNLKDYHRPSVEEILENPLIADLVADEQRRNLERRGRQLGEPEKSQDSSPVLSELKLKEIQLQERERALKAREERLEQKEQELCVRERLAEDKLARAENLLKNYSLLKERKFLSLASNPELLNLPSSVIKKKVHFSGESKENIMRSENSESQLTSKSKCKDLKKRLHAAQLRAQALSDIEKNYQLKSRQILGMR

[9] = biological target: cAMP and cAMP-inhibited cGMP 3',5'-cyclic phosphodiesterase 10A (Mus musculus, UniProt Q8CA95); test: SPA with mouse PDE10A
[10] = biological target: Death-associated protein kinase 1 (Homo sapiens) (UniProt P53355); test: death-associated protein kinase 1 Millipore kinase panel; details: Compound concentration 10.0 uM
Death-associated protein kinase 1 (Homo sapiens), sequence (P53355 whole entry, looked up): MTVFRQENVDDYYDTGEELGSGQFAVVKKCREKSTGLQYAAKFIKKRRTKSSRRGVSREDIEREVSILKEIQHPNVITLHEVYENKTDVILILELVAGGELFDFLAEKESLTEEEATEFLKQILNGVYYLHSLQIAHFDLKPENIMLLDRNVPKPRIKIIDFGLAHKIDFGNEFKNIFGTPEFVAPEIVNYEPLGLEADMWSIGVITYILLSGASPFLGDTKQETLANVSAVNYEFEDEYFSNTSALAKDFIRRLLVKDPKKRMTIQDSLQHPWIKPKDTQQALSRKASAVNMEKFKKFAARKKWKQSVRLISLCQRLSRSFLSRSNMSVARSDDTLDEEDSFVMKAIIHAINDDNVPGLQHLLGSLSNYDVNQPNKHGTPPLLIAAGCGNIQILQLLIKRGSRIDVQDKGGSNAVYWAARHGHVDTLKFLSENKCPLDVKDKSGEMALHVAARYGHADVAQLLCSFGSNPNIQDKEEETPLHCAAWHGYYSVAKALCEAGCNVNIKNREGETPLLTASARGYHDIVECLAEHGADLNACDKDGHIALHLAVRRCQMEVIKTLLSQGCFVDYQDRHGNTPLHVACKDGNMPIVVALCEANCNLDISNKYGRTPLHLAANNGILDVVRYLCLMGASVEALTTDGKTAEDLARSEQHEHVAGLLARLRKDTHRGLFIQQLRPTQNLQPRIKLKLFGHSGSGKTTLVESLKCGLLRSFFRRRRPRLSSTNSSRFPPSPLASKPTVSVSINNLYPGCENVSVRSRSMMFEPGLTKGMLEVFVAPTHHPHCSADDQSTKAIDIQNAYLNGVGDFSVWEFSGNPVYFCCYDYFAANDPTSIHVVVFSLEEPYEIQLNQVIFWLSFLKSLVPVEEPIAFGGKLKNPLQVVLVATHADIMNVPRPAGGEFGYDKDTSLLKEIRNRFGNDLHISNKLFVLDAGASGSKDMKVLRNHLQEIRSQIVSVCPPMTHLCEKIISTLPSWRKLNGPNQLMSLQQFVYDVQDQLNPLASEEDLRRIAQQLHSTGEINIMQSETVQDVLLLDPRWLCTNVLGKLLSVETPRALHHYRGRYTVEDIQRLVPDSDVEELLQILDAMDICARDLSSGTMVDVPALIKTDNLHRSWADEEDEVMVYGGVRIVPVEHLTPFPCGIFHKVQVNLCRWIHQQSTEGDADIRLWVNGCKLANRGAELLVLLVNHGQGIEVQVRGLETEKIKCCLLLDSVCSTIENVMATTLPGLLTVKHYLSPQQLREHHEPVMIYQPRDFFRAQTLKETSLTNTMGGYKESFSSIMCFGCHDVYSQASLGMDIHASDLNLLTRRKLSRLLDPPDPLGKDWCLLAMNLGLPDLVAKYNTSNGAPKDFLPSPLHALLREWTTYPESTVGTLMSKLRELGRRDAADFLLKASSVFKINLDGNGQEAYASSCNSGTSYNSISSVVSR

[11] = biological target: Muscarinic acetylcholine receptor M5 (Homo sapiens) (UniProt P08912); details: Compound concentration 10.0 uM
[12] = biological target: Neuronal acetylcholine receptor; alpha4/beta2 (Homo sapiens) (UniProt P17787+P43681); test: hNneuronala4b2 Cerep panel; details: Compound concentration 10.0 uM
[13] = biological target: Protein kinase C delta type (Homo sapiens) (UniProt Q05655); test: protein kinase C, delta Millipore kinase panel; details: Compound concentration 10.0 uM
[14] = biological target: Serine/threonine-protein kinase TBK1 (Homo sapiens) (UniProt Q9UHD2); test: TANK-binding kinase 1 Millipore kinase panel; details: Compound concentration 10.0 uM
[15] = biological target: Serine/threonine-protein kinase Nek3 (Homo sapiens) (UniProt P51956); test: NIMA -related kinase 3 Millipore kinase panel; details: Compound concentration 10.0 uM
[16] = biological target: Serine/threonine-protein kinase haspin (Homo sapiens) (UniProt Q8TF76); test: germ cell associated 2 (haspin) Millipore kinase panel; details: Compound concentration 10.0 uM
Serine/threonine-protein kinase haspin (Homo sapiens), sequence (Q8TF76 whole entry): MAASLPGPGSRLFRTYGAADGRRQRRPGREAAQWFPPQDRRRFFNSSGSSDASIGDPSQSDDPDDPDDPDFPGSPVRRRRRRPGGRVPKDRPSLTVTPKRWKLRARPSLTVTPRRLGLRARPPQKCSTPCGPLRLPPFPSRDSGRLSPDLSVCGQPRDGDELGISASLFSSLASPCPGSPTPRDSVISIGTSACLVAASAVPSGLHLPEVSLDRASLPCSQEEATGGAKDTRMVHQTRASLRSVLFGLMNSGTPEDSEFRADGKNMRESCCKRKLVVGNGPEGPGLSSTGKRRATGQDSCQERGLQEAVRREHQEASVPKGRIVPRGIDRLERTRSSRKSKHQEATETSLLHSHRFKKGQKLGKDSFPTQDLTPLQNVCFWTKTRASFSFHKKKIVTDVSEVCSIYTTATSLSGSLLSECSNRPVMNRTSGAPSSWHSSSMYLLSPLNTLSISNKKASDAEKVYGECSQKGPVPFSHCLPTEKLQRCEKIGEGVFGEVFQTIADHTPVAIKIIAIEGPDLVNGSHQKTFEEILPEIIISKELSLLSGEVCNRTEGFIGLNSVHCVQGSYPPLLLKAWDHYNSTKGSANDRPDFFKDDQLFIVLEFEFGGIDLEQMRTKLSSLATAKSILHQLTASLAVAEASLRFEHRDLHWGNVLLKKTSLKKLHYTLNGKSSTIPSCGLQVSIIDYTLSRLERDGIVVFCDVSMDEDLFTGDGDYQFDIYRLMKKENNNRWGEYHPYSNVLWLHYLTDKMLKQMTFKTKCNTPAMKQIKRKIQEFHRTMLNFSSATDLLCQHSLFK

[17] = biological target: Misshapen-like kinase 1 (Homo sapiens) (UniProt Q8N4C8); test: misshapen-like kinase 1 Millipore kinase panel; details: Compound concentration 10.0 uM
[18] = biological target: Amine oxidase [flavin-containing] A (Homo sapiens, UniProt P21397); test: hMAOA Cerep panel; details: 10 µM, compound concentration 10 uM
Amine oxidase [flavin-containing] A, sequence (P21397 whole entry): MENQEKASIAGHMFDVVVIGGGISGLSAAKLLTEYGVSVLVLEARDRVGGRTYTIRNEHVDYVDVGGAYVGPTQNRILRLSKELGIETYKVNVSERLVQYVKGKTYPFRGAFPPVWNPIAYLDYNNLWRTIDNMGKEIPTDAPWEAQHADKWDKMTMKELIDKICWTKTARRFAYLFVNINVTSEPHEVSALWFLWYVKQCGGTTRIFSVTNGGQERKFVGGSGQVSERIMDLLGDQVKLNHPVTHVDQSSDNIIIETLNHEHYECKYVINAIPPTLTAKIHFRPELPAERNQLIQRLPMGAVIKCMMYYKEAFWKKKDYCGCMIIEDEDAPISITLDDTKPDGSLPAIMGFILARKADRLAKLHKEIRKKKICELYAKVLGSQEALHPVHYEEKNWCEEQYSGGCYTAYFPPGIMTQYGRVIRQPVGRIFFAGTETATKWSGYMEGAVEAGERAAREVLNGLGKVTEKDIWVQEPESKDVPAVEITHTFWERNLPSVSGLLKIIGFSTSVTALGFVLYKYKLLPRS

[19] = biological target: cAMP and cAMP-inhibited cGMP 3',5'-cyclic phosphodiesterase 10A (Homo sapiens, UniProt Q9Y233); test: SPA with human PDE10A
[20] = biological target: Serine/threonine-protein kinase VRK2 (Homo sapiens) (UniProt Q86Y07); test: vaccinia related kinase 2 Millipore kinase panel; details: Compound concentration 10.0 uM
[21] = cML1 Cerep panel; details: Compound concentration 10.0 uM
[22] = biological target: T1, Muscarinic acetylcholine receptor M2 (Homo sapiens) (UniProt P08172); test: hM2 Cerep panel; details: Compound concentration 10.0 uM
T1 sequence (whole entry): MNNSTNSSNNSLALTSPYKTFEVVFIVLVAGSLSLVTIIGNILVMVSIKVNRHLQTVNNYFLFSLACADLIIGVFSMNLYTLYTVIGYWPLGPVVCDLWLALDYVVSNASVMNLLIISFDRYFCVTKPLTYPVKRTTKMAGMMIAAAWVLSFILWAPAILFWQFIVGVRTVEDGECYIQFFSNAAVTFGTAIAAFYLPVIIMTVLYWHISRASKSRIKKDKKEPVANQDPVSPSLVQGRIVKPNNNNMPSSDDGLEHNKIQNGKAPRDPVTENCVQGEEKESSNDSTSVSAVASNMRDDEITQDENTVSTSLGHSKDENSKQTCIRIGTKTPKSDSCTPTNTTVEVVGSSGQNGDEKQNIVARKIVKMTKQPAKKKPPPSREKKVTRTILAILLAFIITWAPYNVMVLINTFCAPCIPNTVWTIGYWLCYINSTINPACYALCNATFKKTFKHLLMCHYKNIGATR

[23] = biological target: Tyrosine-protein kinase Tec (Homo sapiens) (UniProt P42680); test: tec protein tyrosine kinase (activated) Millipore kinase panel; details: Compound concentration 10.0 uM
[24] = biological target: Prostaglandin G/H synthase 2 (Homo sapiens) (UniProt P35354); test: hCOX2 Cerep panel; details: Compound concentration 10.0 uM
[25] = biological target: 5'-AMP-activated protein kinase catalytic subunit alpha-2 (Homo sapiens) (UniProt P54646); test: protein kinase, AMP-activated, alpha 2 catalytic subunit Millipore kinase panel; details: Compound concentration 10.0 uM
[26] = biological target: Progesterone receptor (Homo sapiens) (UniProt P06401); test: hPR Cerep panel; details: Compound concentration 10.0 uM
[27] = biological target: cGMP-specific 3',5'-cyclic phosphodiesterase (Homo sapiens, UniProt O76074); test: hPDE5A3 PDE scan
[28] = biological target: Translocator protein (Homo sapiens) (UniProt P30536); test: hTSPO Cerep panel; details: Compound concentration 10.0 uM
Translocator protein (Homo sapiens), sequence (P30536 whole entry): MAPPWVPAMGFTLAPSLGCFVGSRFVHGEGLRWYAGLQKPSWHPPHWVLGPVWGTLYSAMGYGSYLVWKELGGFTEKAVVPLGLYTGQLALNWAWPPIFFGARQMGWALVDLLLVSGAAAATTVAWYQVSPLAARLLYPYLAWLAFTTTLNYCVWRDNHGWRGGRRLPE

[29] = biological target: Glutamate NMDA receptor (Rattus norvegicus) (UniProt P35439+Q00959+Q00960+Q00961+Q62645+Q8VHN2+Q9R1M7); test: rPCP Cerep panel; type: protein-complex assay; details: Compound concentration 10.0 uM
[30] = biological target: Ribosomal protein S6 kinase beta-1 (Homo sapiens) (UniProt P23443); test: ribosomal protein S6 kinase, 70kDa, polypeptide 1 Millipore kinase panel; details: Compound concentration 10.0 uM
[31] = biological target: G protein-coupled receptor kinase 6 (Homo sapiens) (UniProt P43250); test: G protein-coupled receptor kinase 6 Millipore kinase panel; details: Compound concentration 10.0 uM
[32] = biological target: Mitogen-activated protein kinase 11 (Homo sapiens) (UniProt Q15759); test: mitogen-activated protein kinase 11 Millipore kinase panel; details: Compound concentration 10.0 uM
Mitogen-activated protein kinase 11 (Homo sapiens), sequence (Q15759 whole entry): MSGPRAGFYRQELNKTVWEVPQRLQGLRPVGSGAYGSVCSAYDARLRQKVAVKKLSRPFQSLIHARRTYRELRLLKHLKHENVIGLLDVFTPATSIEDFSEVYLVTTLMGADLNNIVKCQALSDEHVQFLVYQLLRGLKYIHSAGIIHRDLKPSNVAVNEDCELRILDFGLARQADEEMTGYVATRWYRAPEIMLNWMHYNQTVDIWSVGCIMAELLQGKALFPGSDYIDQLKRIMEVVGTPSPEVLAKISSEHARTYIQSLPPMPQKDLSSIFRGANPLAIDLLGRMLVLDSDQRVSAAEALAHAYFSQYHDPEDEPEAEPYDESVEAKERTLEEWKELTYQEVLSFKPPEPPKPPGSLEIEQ

[33] = biological target: cGMP-inhibited 3',5'-cyclic phosphodiesterase 3A (Homo sapiens, UniProt Q14432); test: hPDE3A Cerep panel; details: Compound concentration 10.0 uM
[34] = biological target: Nociceptin receptor (Homo sapiens) (UniProt P41146); test: hORL1 Cerep panel; details: Compound concentration 10.0 uM
Homo sapiens = species: Homo sapiens; test: p21 protein -activated kinase 2 Millipore kinase panel; details: Compound concentration 10.0 uM
[35] = biological target: Protein kinase C gamma type (Homo sapiens) (UniProt P05129); test: protein kinase C, gamma Millipore kinase panel; details: Compound concentration 10.0 uM
[36] = biological target: Macrophage-stimulating protein receptor (Homo sapiens) (UniProt Q04912); test: macrophage stimulating 1 receptor Millipore kinase panel; details: Compound concentration 10.0 uM
[37] = biological target: Ephrin type-A receptor 4 (Homo sapiens) (UniProt P54764); test: EPH receptor A4 Millipore kinase panel; details: Compound concentration 10.0 uM
[38] = biological target: Cyclin-dependent kinase 1/cyclin B (Homo sapiens) (UniProt P06493+P14635+Q8WWL7+O95067); test: cyclin-dependent kinase 1 / clyclinB Millipore kinase panel; type: protein-complex assay; details: Compound concentration 10.0 uM
[39] = biological target: Serine/threonine-protein kinase PAK 5 (Homo sapiens) (UniProt Q9P286); test: p21 protein -activated kinase 5 Millipore kinase panel; details: Compound concentration 10.0 uM
[40] = biological target: D(1A) dopamine receptor (Homo sapiens) (UniProt P21728); test: hD1 Cerep panel; details: Compound concentration 10.0 uM
D(1A) dopamine receptor (Homo sapiens), sequence (P21728 whole entry): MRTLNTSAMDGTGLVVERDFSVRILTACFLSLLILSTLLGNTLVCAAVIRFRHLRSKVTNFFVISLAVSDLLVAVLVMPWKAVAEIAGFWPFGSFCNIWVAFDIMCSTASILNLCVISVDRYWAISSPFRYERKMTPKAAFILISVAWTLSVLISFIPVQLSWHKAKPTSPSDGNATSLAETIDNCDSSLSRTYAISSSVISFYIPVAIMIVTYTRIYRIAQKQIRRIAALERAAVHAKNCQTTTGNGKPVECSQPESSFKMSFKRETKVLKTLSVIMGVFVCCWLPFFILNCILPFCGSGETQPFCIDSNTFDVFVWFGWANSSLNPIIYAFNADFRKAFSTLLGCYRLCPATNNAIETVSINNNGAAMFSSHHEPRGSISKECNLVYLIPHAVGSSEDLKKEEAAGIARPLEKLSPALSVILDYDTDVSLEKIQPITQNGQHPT

[41] = biological target: Alpha-1A adrenergic receptor (Rattus norvegicus) (UniProt P43140); test: rAa1 Cerep panel; details: Compound concentration 10.0 uM

COCCc1ccc(-c2c(C)nc3c(N4CCOCC4)ccnn23)cn1 [JNJ-42396302]
Ki [1]: 41 µM
inhibition [2]: 3%
effect (Rattus norvegicus): 2.9%
inhibition [3]: -4%
inhibition [4]: 13%
inhibition [5]: -1%
inhibition [6]: -3%
inhibition [7]: 7%
inhibition [8]: -1%
Ki [9]: 0.011 µM (active)
inhibition [10]: -2%
inhibition [11]: -1.98%
effect [12]: -3%
inhibition [13]: -2%
inhibition [14]: -3%
inhibition [15]: 4%
inhibition [16]: 5%
inhibition [17]: 9%
effect [18]: 13.8%
Ki [19]: 0.013 µM (active)
inhibition [20]: -4%
effect [21]: -4.5%
effect [22]: 11%
inhibition [23]: 7%
effect [24]: 13.4%
inhibition [25]: 2%
effect [26]: 13.5%
Ki [27]: 8.5 µM
effect [28]: 2.8%
effect [29]: -3.5%
inhibition [30]: -7%
inhibition [31]: 3%
inhibition [32]: -2%
effect [33]: 6%
effect [34]: 2.15%
inhibition (Homo sapiens): -3%
inhibition [35]: -4%
inhibition [36]: 3%
inhibition [37]: 2%
inhibition [38]: 5%
inhibition [39]: 7%
effect [40]: 6.2%
effect [41]: -2.55%
